The target in the assay is Bcl-2-like protein 1 (Homo sapiens) (UniProt Q07817). The experiment in a line: Bim-Bcl-XL interaction inhibitors, potency, dose response, biochemical, multiplexed, bead flow cytometry, human Bcl-XL (AID 1322). On inhibition: test concentration not given here. As to conditions: Bead-based flow cytometry, Bim peptide-Bcl-XL binding, MCF; for inhibition: active compounds read high. For orientation: In flow cytometry, cells or beads pass a laser one at a time.

SMILES strings stand for the structures. The source made the active and inactive calls. How the calls were made is not given here.

Bcl-2-like protein 1 (Homo sapiens), sequence (Q07817 whole entry, looked up): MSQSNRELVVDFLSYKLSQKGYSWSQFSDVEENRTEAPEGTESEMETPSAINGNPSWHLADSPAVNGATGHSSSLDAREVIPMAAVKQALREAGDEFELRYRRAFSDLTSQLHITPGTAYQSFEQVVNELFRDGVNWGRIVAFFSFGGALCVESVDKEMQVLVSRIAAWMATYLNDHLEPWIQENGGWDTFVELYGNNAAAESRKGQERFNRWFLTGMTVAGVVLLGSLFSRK

Regarding `Cn1c(=O)c2c(nc(NCCO)n2CCc2ccccc2)n(C)c1=O`, the inhibition result was “inactive”.

Regarding `CCCOc1ccc(-c2c(C(=O)N/N=C/c3ccc(OC)cc3)nnn2-c2nonc2N)cc1`, the inhibition result is “inactive”.

Take `CN(CCO)c1cc(Sc2nc3ccccc3s2)c2nonc2c1[N+](=O)[O-]`: the inhibition result is “inactive”.

With `Cc1ccccc1OCC(=O)N/N=C/c1ccccn1`, the inhibition entry was “inactive”.

Consider `C1=CC2c3ccccc3NC(c3ccncc3)C2C1` (configuration not stated), for which the inhibition result is “inactive”.

With `O=C(CCc1ccccc1)N1CCN(c2ccccn2)CC1`, the result was inactive.

For the compound `Cc1cccc(-n2c(-c3ccncc3)n[nH]c2=S)c1`, the inhibition entry was “inactive”.

As to `Brc1ccc2ncnc(Nc3ccc(N4CCOCC4)cc3)c2c1`, the inhibition entry is “inactive”.

With `Cc1ccc(Nc2nc(C)cs2)cc1`, the outcome was inactive.

For `CCc1cccc(CC)c1NC(=S)N1CCn2cccc2C1c1cccnc1` (configuration not stated), the result was inactive.

As for `COCc1cc(CN2CCCC(CNC(=O)c3ccc(F)cc3)C2)ccc1OC` (configuration not stated), the inhibition entry is “inactive”.

As to `CCc1nnc(NS(=O)(=O)c2ccc(N=CC3=C(O)CC(C)(C)CC3=O)cc2)s1`, the inhibition result was “inactive”.

For the compound `COc1cc2c(cc1OC)C(c1ccccc1F)OC(=O)C2` (configuration not stated), the inhibition entry is “inactive”.

For the compound `COc1ccc(-c2noc(COc3ccc4c(c3)OCO4)n2)cc1OC`, the inhibition entry is “inactive”.

With `COc1cc(OC)c([N+](=O)[O-])cc1/C=N/NC(=O)c1ccncc1`, the inhibition entry was “inactive”.

As to `CCOC(=O)CCCNC(=O)c1cncc(O)c1`, the inhibition result was “inactive”.

Take `CCCC1(C(=O)OCC)NC(c2cc(OC)c(OC)c(OC)c2)C2C(=O)N(CC)C(=O)C21` (configuration not stated): the inhibition result was “inactive”.

As for `CCOc1cc(NC(=S)NC)c(OCC)cc1NC(=O)c1ccc(OC)cc1`, the outcome was inactive.

Regarding `O=C(CNC(=O)c1ccco1)NCC(=O)OCc1ccccc1Br`, the inhibition entry is “inactive”.

As to `COc1ccccc1-n1c(-c2cc(-c3ccc(F)cc3)n[nH]2)n[nH]c1=S`, the inhibition entry was “inactive”.

As for `CC(C(=O)Nc1ccc([N+](=O)[O-])cc1)N1CCN(C/C=C/c2ccccc2)CC1` (configuration not stated), the inhibition result is “inactive”.

In the case of `Cc1cc[n+]2cc(-c3cccc([N+](=O)[O-])c3)c(-c3cccc([N+](=O)[O-])c3)cc2c1`, the result was inactive.

In the case of `Cc1ccc(-c2nc3c(c(=O)[nH]c(=O)n3Cc3ccccc3)n2C)o1`, the inhibition entry was “inactive”.

On to `CCCn1c(N2CCN(C)CC2)nc2c1c(=O)[nH]c(=O)n2C`, for which the inhibition entry was “inactive”.

On to `Cc1nonc1NC(=O)CSc1nnc(-c2ccoc2C)n1C`, for which the inhibition result was “inactive”.

As to `COc1cc(/C=C2/NC(=O)N(Cc3ccccc3F)C2=O)ccc1O`, the result was inactive.

On to `N#C/C(=C(/O)CN1CCN(c2ccccc2F)CC1)c1nc(-c2ccccc2)cs1`, for which the inhibition entry was “inactive”.

Take `COC(=O)c1ccc(/C=N/NC(=O)CC(=O)NCc2cccnc2)cc1`: the outcome was inactive.

With `COC(=O)Cc1cc(=O)[nH]c(Nc2nc3ccccc3o2)n1`, the inhibition result is “inactive”.

On to `O=C(COc1ccccc1Br)NCc1ccccn1`, for which the inhibition result was “inactive”.

Regarding `O=C1N/C(=C/c2cccn2-c2ccccc2)C(=O)N1Cc1ccc(F)cc1`, the result was inactive.

For `Cc1ccc(NS(=O)(=O)c2cc(NC(=O)c3ccc4c(c3)NC(=O)CS4)ccc2C)c(C)c1`, the inhibition result is “inactive”.

As for `COc1ccc(C2=Nc3cccc4cccc(c34)N2)cc1`, the inhibition result was “inactive”.

On to `COc1ccc2nc(C)cc(SCC(=O)N/N=C/c3ccc(O)cc3O)c2c1`, for which the inhibition result was “inactive”.

`CC1(C)SC(=S)N(NC(=O)Nc2ccccc2)C1N(O)C(=O)Nc1cccc2ccccc12` (configuration not stated): the inhibition result was “inactive”.

As to `Cc1csc(Nc2ccccc2C(F)(F)F)n1`, the inhibition entry was “inactive”.

For `COc1ccccc1Oc1ccc2c(c1)C(=O)N(c1cccc3ncccc13)C2=O`, the inhibition entry is “inactive”.

For the compound `COCCNC(=O)CN1CCC(NC(=O)Nc2ccccc2)CC1`, the inhibition result was “inactive”.

As for `CCN(CC)S(=O)(=O)c1cccc(C(=O)N/N=C/c2ccc(O)c(O)c2O)c1`, the inhibition result is “inactive”.

`Cc1ccc(Nc2nc(CSc3nnc(-c4cccnc4)n3-c3ccccc3C)cs2)cc1`: the inhibition entry was “inactive”.

Consider `Cc1cccc(N2CCN(C(=S)Nc3ccc4nc(N5CCN(C)CC5)cc(C)c4c3)CC2)c1C`, for which the inhibition result was “inactive”.

For the compound `O=C(/C=C/c1ccc(-c2ccccc2[N+](=O)[O-])o1)c1ccccc1`, the inhibition result was “inactive”.

As for `COc1ccc(C2=Nn3c(nnc3-c3ccccn3)SC2)cc1OC`, the inhibition entry was “inactive”.

In the case of `O=C(C[n+]1ccc(-c2nnc3n2CCC3)cc1)c1ccc(Cl)c(Cl)c1`, the inhibition result was “inactive”.

In the case of `CCC(=O)NC(c1ccc(C)cc1)c1cc([N+](=O)[O-])c2cccnc2c1O` (configuration not stated), the inhibition entry was “inactive”.

Consider `CCc1nn2cc(C(=O)c3cc(C)ccc3O)cnc2c1-c1ccc(F)cc1`, for which the inhibition result was “inactive”.

With `Fc1ccc(/C=C2\CCCC3=C2NC(=S)NC3c2ccc(F)cc2)cc1` (configuration not stated), the inhibition result is “inactive”.

`Cc1ccc(NC(=O)CC2S/C(=N/N=C/c3c[nH]c4ccccc34)NC2=O)cc1` (configuration not stated): the inhibition result was “inactive”.

Regarding `O=C(NCc1ccco1)C1CC2CCC1C2` (configuration not stated), the inhibition entry is “inactive”.

Regarding `O=C1C(=O)c2ccc(-c3ccccc3)cc2-c2ccccc21`, the inhibition entry is “inactive”.

Turning to `Cc1ccc(O)c(NC2=C(Cl)C(=O)N(Cc3ccccc3)C2=O)c1`, the inhibition result is “inactive”.

`COc1ccc(NC(=O)/C(Cl)=C(/Cl)S(=O)Cc2ccccc2)cn1` (configuration not stated): the inhibition entry is “inactive”.

As for `CCOC(=O)c1nn(-c2ccccc2)c(C#N)c1N`, the outcome was inactive.

For `COc1ccc(COC(=O)NNC(=O)c2ccccc2Cl)cc1`, the inhibition entry is “inactive”.

Regarding `CN1N=C(C(=O)N2CCCC(C(=O)c3cccc(C(F)(F)F)c3)C2)CCC1=O` (configuration not stated), the inhibition result was “inactive”.

As for `O=C(c1cccc(Br)c1)N1CCN(c2cnn(-c3ccccc3)c(=O)c2Cl)CC1`, the result was inactive.

Take `COc1ccc(OC)c(NC(=O)CCCN2C(=S)NC(C)(C)CC2C)c1` (configuration not stated): the outcome was inactive.

On to `CCOC(=O)C1=C(Cc2ccc(C)cc2)C(=O)c2ccccc2C1=O`, for which the inhibition result was “inactive”.

Consider `O=C(COC(=O)CCCN=C1NS(=O)(=O)c2ccccc21)NC(=O)NC1CCCC1`, for which the inhibition entry was “inactive”.

Turning to `Cc1ccc(-c2c3c([nH]c(=S)c2C#N)CCCC3)o1`, the inhibition entry is “inactive”.

As for `CCNC(=S)Nc1cc(OCC)c(NC(=O)c2cccs2)cc1OCC`, the inhibition entry is “inactive”.

For `COc1ccc(CN(C)CC(=O)NC(C)c2ccccc2)c(OC)c1` (configuration not stated), the inhibition entry is “inactive”.

Regarding `Clc1ccc(N=c2ssnc2Cl)nc1`, the outcome was inactive.

As to `Cc1ccc(/C=N/N(C)C2=NS(=O)(=O)c3ccccc32)o1`, the inhibition entry is “inactive”.

On to `CCc1cccc(NC(=O)COc2ccccc2)c1`, for which the inhibition entry is “inactive”.

Take `COC(=O)c1cc(OC)c(OC)cc1NC(=O)Nc1cccc(C(C)=O)c1`: the inhibition result was “inactive”.

Regarding `COc1cccc2c1C(=O)C=C(C)C2=O`, the inhibition entry is “inactive”.

Turning to `CCOC(=O)N1CCC(c2cc(=O)n(-c3ccccc3)[nH]2)CC1`, the result was inactive.

Consider `O=C(CC1NCCNC1=O)Nc1cccc([N+](=O)[O-])c1` (configuration not stated), for which the outcome was inactive.

On to `Cc1ccc(C)c(/C=C/C(=O)c2ccccc(=O)c2O)c1`, for which the inhibition entry was “inactive”.

Turning to `Cc1cc(C)nc(SCc2cc(=O)c(OC(=O)c3cccc([N+](=O)[O-])c3)co2)n1`, the inhibition result was “inactive”.

With `C=CCn1c(C)cc(-c2csc(NC)n2)c1C`, the inhibition result is “inactive”.

For `CCOC(=O)c1cc2c(=O)n3cccc(C)c3nc2n(Cc2ccco2)c1=NC(=O)c1ccccc1`, the inhibition entry was “inactive”.

With `CN(C)C(=O)N1CCC(C(=O)NC2CCCCCCC2)CC1`, the inhibition result was “inactive”.

On to `O=C(O)CC/C(=C\c1cc([N+](=O)[O-])ccc1Cl)c1nc2ccccc2s1`, for which the inhibition result was “inactive”.

`CCOc1ccccc1NC(=O)CSc1nnc2ccc(-c3cccnc3)nn12`: the inhibition result is “inactive”.

As to `CC1=CC(=O)c2c(O)ccc(O)c2C1=O`, the inhibition entry was “inactive”.

Take `CCOc1cc(S(=O)(=O)N2CCCCC2)ccc1F`: the inhibition result is “inactive”.

As for `CNC(=O)/C(C#N)=C/c1c(N(Cc2ccccc2)Cc2ccccc2)nc2c(C)cccn2c1=O`, the inhibition entry was “inactive”.

For the compound `OCCC1CN(Cc2nc3c(s2)CCCC3)CCN1Cc1ccsc1` (configuration not stated), the inhibition entry was “inactive”.

In the case of `CCn1cc(C=C2C(=O)c3ccccc3C2=O)c2ccccc21`, the inhibition result was “inactive”.

For the compound `c1ccc(-c2nc(N3CCCCC3)nc3ccccc23)cc1`, the inhibition result is “inactive”.

For `CC(NCc1ccc(-c2ccccc2)cc1)C(O)c1ccccc1` (configuration not stated), the result was inactive.

With `Clc1nc2ccccc2cc1/C=N/Nc1nc2ccccc2[nH]1`, the EC50 result was “inactive”.

As to `CC(=O)c1ccc2c(c1)C1C=CCC1C(c1ccncc1)N2` (configuration not stated), the inhibition entry was “inactive”.

Take `NNC(=O)COc1ccccc1F`: the inhibition result was “inactive”.

As to `CC1(C)CC(=O)C(C=NCCN2CCN(CCc3ccccc3)CC2)=C(O)C1`, the inhibition result is “inactive”.

For `CCCCN(C(=O)CCC(=O)Nc1cc(C)on1)C(C(=O)NC(C)(C)C)c1cccc(OC)c1OC` (configuration not stated), the inhibition entry is “inactive”.

Turning to `BrC(=C\c1ccccc1)/C=N/N1CCN(c2ccccc2)CC1`, the outcome was inactive.

Regarding `COc1ccc(OC)c(Nc2ccc(C(=O)O)cc2[N+](=O)[O-])c1`, the result was inactive.

`COc1cc(N=c2ssnc2Cl)cc(OC)c1`: the inhibition entry is “inactive”.

Regarding `Cc1csc(SCCn2c(N3CCN(c4ccccc4)CC3)nc3c2c(=O)[nH]c(=O)n3C)n1`, the inhibition result is “inactive”.

The record behind these values is PubChem BioAssay AID1322 (NMMLSC, 2008).
